Reference: patent publication US20120225093A1, “Abrogating HIV-1 Infection via Drug-Induced Reactivation of Apoptosis” (UNIVERSITY OF MEDICINE AND DENTISTRY OF NEW JERSEY, priority 2010, published 2012)

How the values were obtained:
[1] = system: H9-HIV cells; experiment: 89-kDa PARP fragment by flow cytometry in H9-HIV cells; type: cell-based; conditions: 30 μM CPX, 24 hr
Protocol: (§1) Intracellular antigens were determined, as geometric means of fluorescence, by flow cytometric analysis using a BD FACSCalibur™ and its BD FACStation System™ (Becton Dickinson; San Jose, Calif.). Intracellular antigens were stained according to the instrument producer's instructions. Anti-HIV-1 Tat antibody was from Abcam Inc. (Cambridge, Mass.); anti-HIV-1 Vpr from Santa Cruz Biotechnology (Santa Cruz, Calif.); anti-HIV-1 Rev from Advanced Biotechnologies Inc. (Columbia, Md.); anti-HIV-1 p24 (KC57) from Beckman Coulter, Miami, Fla.; monoclonal C92-605 anti-human caspase-3 (active form) from Pharmingen (BD Biosciences, San Diego, Calif.); monoclonal F21-852 anti-human poly (ADP-ribose) polymerase (caspase-cleaved 89-kDa fragment); and monoclonal 6C8 anti-human Bcl-2 from Becton Dickinson (BD Biosciences; San Diego, Calif.).
To determine whether the differential effects of the drugs extend into late apoptosis, PARP fragmentation in H9 and H9-HIV cells was measured. CPX caused an ˜8-fold increase in H9-HIV cells positive for 89-kDa PARP, compared to a ˜2 fold increase in H9 cells (FIG. 9A). By 24 hr, twice as many cells stained positive for 89-kDa PARP in the infected cultures as in uninfected cultures (27% compared to 14%; FIG. 9B). […] It is concluded that the retroviral suppression of initiation and execution of apoptosis is reversed by the drugs and transformed into enhanced susceptibility of HIV-infected cells to apoptosis.

[2] = in vivo; cited from earlier work
[3] = system: IL-10; experiment: IL-10 secretion by PBMC cultures (cytometric bead array); type: cell-based, human; conditions: CPX added at inoculation or 12 hr later; Phase I
Protocol: Uninfected PBMCs were co-incubated with infected PBMC stock in 24-well microplates at 2 ml/well Medium B, at a 10:1 ratio of uninfected-to-infected cells, and a total cell number of 1×10^6. Cultures were maintained and assayed for 6 consecutive days. CPX or Agent P2 was added at the time of inoculation or 12 hr later. Leaving the cell layer undisturbed, half the medium in each well was replenished every day, with concurrent adjustment of compound concentration. On each day during the 6-day experiments, a set of wells was harvested: the cells were processed for determination of viability and apoptosis, and the cell-free supernatants were stored at −80° C. for p24 and viral RNA measurements. Experiments were performed at least in duplicate and repeated at least twice.
p24 core antigen in the supernatant was quantified by ELISA (Retrotek HIV-1 p24™; ZeptoMetrix Corp.; Buffalo, N.Y.). HIV-1 RNA copy number in the supernatant was determined with a PCR-based and FDA-approved assay (Amplicor HIV-1 Monitor™; Roche Diagnostics Corp.; Indianapolis, Ind.). IFN-γ and IL-10 in the supernatant were determined by cytometric bead array (Human Th1/Th2 Cytokine Kit II™; BD Biosciences Pharmingen, San Jose, Calif.).
To further assess the cellular effects of CPX, the secretion of interferon (IFN)-γ and interleukin (IL)-10 was measured. […]

[4] = system: HIV-1 LTR; experiment: RNase protection assay of pLTR-FF transcripts (elongation, RNA stability); type: cell-based
Protocol: RPA was performed with 10 μg of cytoplasmic RNA and 5 μg of nuclear RNA, using the RPAIII kit from Ambion (Austin, Tex.) according to the manufacturer's instructions. Synthesis of radiolabeled RNA and protection assays were performed as described in Young et al. Mol Cell Biol 2003, 23:6373-6384. To generate antisense RNA probe against the HIV-1 major splice site, firefly luciferase and Renilla luciferase pBSII-KS+HIV (+80-341), pSP-luc and pSP-rluc were linearized with HindIII, XbaI and BsaI, respectively. The resulting probes were 309, 390 and 245 nt long, respectively. […]
Results of the deletion analysis implied that sensitivity to the drugs is conferred by the promoter or another feature in the HIV-1 LTR. […] Nuclear and cytoplasmic RNA was analyzed in RNase protection assays using a probe complementary to the promoter-proximal region of HIV transcripts (FIG. 6A). […]
To examine the possibility that the drugs decrease the stability of RNA transcribed from the HIV promoter, cells transfected with pLTR-FF were incubated in the presence or absence of CPX. Actinomycin D was added to some cultures 12 hr later to block further transcription, and FF RNA was monitored by RPA at intervals thereafter (FIG. 6D, top panel). FF RNA levels were quantified and normalized to the levels at 12 hr (FIG. 6D, bottom panel). […]

[5] = system: uninfected H9 cells; experiment: 89-kDa PARP fragment by flow cytometry in uninfected H9 cells; type: cell-based; conditions: 30 μM CPX, 24 hr
Protocol: as §1
To determine whether the differential effects of the drugs extend into late apoptosis, PARP fragmentation in H9 and H9-HIV cells was measured. CPX caused an ˜8-fold increase in H9-HIV cells positive for 89-kDa PARP, compared to a ˜2 fold increase in H9 cells (FIG. 9A). By 24 hr, twice as many cells stained positive for 89-kDa PARP in the infected cultures as in uninfected cultures (27% compared to 14%; FIG. 9B). […]

Cc1cc(C2CCCCC2)n(O)c(=O)c1 [CPX, 6-cyclohexyl-1-hydroxy-4-methylpyridin-2[1H]-one]
89-kDa PARP fluorescence intensity, infected versus uninfected [1]: approximately one order of magnitude higher | cells positive for 89-kDa PARP [1]: 27% | increase in cells positive for 89-kDa PARP ([1]; relative to untreated): ~8 fold | tolerability [2]: well tolerated | HIV-induced rise of IL-10 [3]: abolished the HIV-induced cytokine boost | rate of FF RNA decay ([4]; actinomycin D added at 12 hr): not affected | FF mRNA level at 12 hr post-transfection, less than control ([4]; in the presence of CPX): ~50% | cells positive for 89-kDa PARP [5]: 14% | increase in cells positive for 89-kDa PARP ([5]; relative to untreated): ~2 fold
